Assay results reported in patent US20230085307A1, “PYRIDAZINONE COMPOUND AND HERBICIDE” (NISSAN CHEMICAL CORPORATION, priority 2019, published 2023).

Key:
[1] = tested on: redroot pigweed; test: Test Example 5: herbicidal effect by foliage application, plastic box (Table 20, symbol N); assay type: in vivo, redroot pigweed (Amaranthus retroflexus); conditions: foliage application, 320 g/ha, evaluated three weeks after application
Outline: (§1)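 Post-emergence foliar test in sterilized diluvial soil. Compound applied as water-diluted emulsion at a predetermined rate to 14-day-old plants; evaluation at three weeks.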

[2] = tested on: Italian ryegrass; test: Test Example 5: herbicidal effect by foliage application, plastic box (Table 20, symbol K); assay type: in vivo, Italian ryegrass (Lolium multiflorum); conditions: foliage application, 320 g/ha, evaluated three weeks after application
Outline: as §1

[3] = tested on: lambsquarters; test: Test Example 4: herbicidal effect by soil treatment (Table 19, symbol O); assay type: in vivo, lambsquarters (Chenopodium album); conditions: 320 g/ha
Outline: (§2)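 Scoring uses the grading scale of an earlier test, three weeks post-application. Treatment consists of spraying a diluted emulsion formulation across the surface of sterilized diluvial soil in which seeds are buried near 1.5 cm deep; boxes are kept in a greenhouse between 25° C. and 30° C.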

[4] = tested on: velvetleaf; test: Test Example 4: herbicidal effect by soil treatment (Table 19, symbol M); assay type: in vivo, velvetleaf (Abutilon theophrasti); conditions: 320 g/ha
Outline: as §2

[5] = tested on: barnyard grass; test: Test Example 3: herbicidal effect by foliage application, Wagner pot (Table 18, symbol H); assay type: in vivo, barnyard grass (Echinochloa crus-galli); conditions: 320 g/ha
Outline: (§3)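 Plants were sown in alluvial soil held under 0.1–0.5 cm standing water and grown 14 days in a greenhouse at 25–30 °C. An emulsifiable formulation, water-diluted to the set dose, was then sprayed onto the foliage, and effects were scored three weeks later using previously defined criteria.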

[6] = tested on: windgrass; test: Test Example 5: herbicidal effect by foliage application, plastic box (Table 20, symbol L); assay type: in vivo, windgrass (Apera spica-venti); conditions: foliage application, 320 g/ha, evaluated three weeks after application
Outline: as §1

[7] = tested on: persian speedwell; test: Test Example 5: herbicidal effect by foliage application, plastic box (Table 20, symbol R); assay type: in vivo, Persian speedwell (Veronica persica); conditions: foliage application, 320 g/ha, evaluated three weeks after application
Outline: as §1

[8] = tested on: blackgrass; test: Test Example 4: herbicidal effect by soil treatment (Table 19, symbol J); assay type: in vivo, blackgrass (Alopecurus myosuroides); conditions: 320 g/ha
Outline: as §2

[9] = tested on: lambsquarters; test: Test Example 5: herbicidal effect by foliage application, plastic box (Table 20, symbol O); assay type: in vivo, lambsquarters (Chenopodium album); conditions: foliage application, 320 g/ha, evaluated three weeks after application
Outline: as §1

[10] = tested on: late watergrass; test: Test Example 1: herbicidal activity, application before weed generation under submerged conditions (Table 16, symbol A); assay type: in vivo, late watergrass (Echinochloa oryzicola); conditions: 320 g/ha applied herbicide
Outline: (§4)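 Emulsion formulation, water-diluted to set dose, was put onto the flooded surface (4 cm depth, alluvial soil) the same day weeds were sown and 2.5-leaf rice transplanted. After 3 weeks at 25-30 °C under glass, each species was rated 0 (≤5% kill) to 5 (≥90% kill).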

[11] = tested on: redroot pigweed; test: Test Example 4: herbicidal effect by soil treatment (Table 19, symbol N); assay type: in vivo, redroot pigweed (Amaranthus retroflexus); conditions: 320 g/ha
Outline: as §2

[12] = tested on: rice flat sedge; test: Test Example 3: herbicidal effect by foliage application, Wagner pot (Table 18, symbol E); assay type: in vivo, rice flat sedge (Cyperus iria); conditions: 320 g/ha
Outline: as §3

[13] = tested on: oval-leafed pondweed; test: Test Example 1: herbicidal activity, application before weed generation under submerged conditions (Table 16, symbol C); assay type: in vivo, oval-leafed pondweed (Monochoria vaginalis); conditions: 320 g/ha applied herbicide
Outline: as §4

[14] = tested on: Japanese bulrush; test: Test Example 1: herbicidal activity, application before weed generation under submerged conditions (Table 16, symbol B); assay type: in vivo, Japanese bulrush (Schoenoplectus juncoides); conditions: 320 g/ha applied herbicide
Outline: as §4

[15] = tested on: windgrass; test: Test Example 4: herbicidal effect by soil treatment (Table 19, symbol L); assay type: in vivo, windgrass (Apera spica-venti); conditions: 320 g/ha
Outline: as §2

[16] = tested on: blackgrass; test: Test Example 5: herbicidal effect by foliage application, plastic box (Table 20, symbol J); assay type: in vivo, blackgrass (Alopecurus myosuroides); conditions: foliage application, 320 g/ha, evaluated three weeks after application
Outline: as §1

[17] = tested on: Chinese sprangletop; test: Test Example 3: herbicidal effect by foliage application, Wagner pot (Table 18, symbol D); assay type: in vivo, chinese sprangletop (Leptochloa chinensis); conditions: 320 g/ha
Outline: as §3

[18] = tested on: Italian ryegrass; test: Test Example 4: herbicidal effect by soil treatment (Table 19, symbol K); assay type: in vivo, Italian ryegrass (Lolium multiflorum); conditions: 320 g/ha
Outline: as §2

[19] = tested on: barnyard grass; test: Test Example 4: herbicidal effect by soil treatment (Table 19, symbol H); assay type: in vivo, barnyard grass (Echinochloa crus-galli); conditions: 320 g/ha
Outline: as §2

[20] = tested on: false cleavers; test: Test Example 5: herbicidal effect by foliage application, plastic box (Table 20, symbol Q); assay type: in vivo, false cleavers (Galium spurium); conditions: foliage application, 320 g/ha, evaluated three weeks after application
Outline: as §1

[21] = tested on: persian speedwell; test: Test Example 4: herbicidal effect by soil treatment (Table 19, symbol R); assay type: in vivo, Persian speedwell (Veronica persica); conditions: 320 g/ha
Outline: as §2

[22] = tested on: chickweed; test: Test Example 4: herbicidal effect by soil treatment (Table 19, symbol P); assay type: in vivo, common chickweed (Stellaria media); conditions: 320 g/ha
Outline: as §2

[23] = tested on: southern crabgrass; test: Test Example 5: herbicidal effect by foliage application, plastic box (Table 20, symbol F); assay type: in vivo, southern crabgrass (Digitaria ciliaris); conditions: foliage application, 320 g/ha, evaluated three weeks after application
Outline: as §1

[24] = tested on: southern crabgrass; test: Test Example 4: herbicidal effect by soil treatment (Table 19, symbol F); assay type: in vivo, southern crabgrass (Digitaria ciliaris); conditions: 320 g/ha
Outline: as §2

[25] = tested on: wild oat; test: Test Example 5: herbicidal effect by foliage application, plastic box (Table 20, symbol I); assay type: in vivo, wild oat (Avena fatua); conditions: foliage application, 320 g/ha, evaluated three weeks after application
Outline: as §1

[26] = tested on: velvetleaf; test: Test Example 5: herbicidal effect by foliage application, plastic box (Table 20, symbol M); assay type: in vivo, velvetleaf (Abutilon theophrasti); conditions: foliage application, 320 g/ha, evaluated three weeks after application
Outline: as §1

[27] = tested on: barnyard grass; test: Test Example 5: herbicidal effect by foliage application, plastic box (Table 20, symbol H); assay type: in vivo, barnyard grass (Echinochloa crus-galli); conditions: foliage application, 320 g/ha, evaluated three weeks after application
Outline: as §1

[28] = tested on: green foxtail; test: Test Example 5: herbicidal effect by foliage application, plastic box (Table 20, symbol G); assay type: in vivo, green foxtail (Setaria viridis); conditions: foliage application, 320 g/ha, evaluated three weeks after application
Outline: as §1

[29] = tested on: green foxtail; test: Test Example 4: herbicidal effect by soil treatment (Table 19, symbol G); assay type: in vivo, green foxtail (Setaria viridis); conditions: 320 g/ha
Outline: as §2

[30] = tested on: wild oat; test: Test Example 4: herbicidal effect by soil treatment (Table 19, symbol I); assay type: in vivo, wild oat (Avena fatua); conditions: 320 g/ha
Outline: as §2

[31] = tested on: chickweed; test: Test Example 5: herbicidal effect by foliage application, plastic box (Table 20, symbol P); assay type: in vivo, common chickweed (Stellaria media); conditions: foliage application, 320 g/ha, evaluated three weeks after application
Outline: as §1

## COc1cc(F)ccc1-c1sc2ccc(F)cc2c1-c1c(O)c(C)nn(C)c1=O [2-083]
[1]
  herbicidal effect on N: redroot pigweed: 5 (Herbicidal rate of 90% or more (almost completely withered))
[2]
  herbicidal effect on K: Italian ryegrass: 4 (Herbicidal rate of 70% or more and less than 90%)
[3]
  herbicidal effect rating, O: lambsquarters: 5 (Herbicidal rate of 90% or more (almost completely withered))
[4]
  herbicidal effect rating, M: velvetleaf: 2 (Herbicidal rate of 20% or more and less than 40%)
[5]
  herbicidal effect on H (barnyard grass), rating 0-5: 5 (Herbicidal rate of 90% or more (almost completely withered))
[6]
  herbicidal effect on L: windgrass: 5 (Herbicidal rate of 90% or more (almost completely withered))
[7]
  herbicidal effect on R: persian speedwell: 5 (Herbicidal rate of 90% or more (almost completely withered))
[8]
  herbicidal effect rating, J: blackgrass: 5 (Herbicidal rate of 90% or more (almost completely withered))
[9]
  herbicidal effect on O: lambsquarters: 5 (Herbicidal rate of 90% or more (almost completely withered))
[10]
  Herbicidal effect on A: late watergrass (grade 0-5): 2 (Herbicidal rate of 20% or more and less than 40%)
[11]
  herbicidal effect rating, N: redroot pigweed: 5 (Herbicidal rate of 90% or more (almost completely withered))
[12]
  herbicidal effect on E (rice flat sedge), rating 0-5: 5 (Herbicidal rate of 90% or more (almost completely withered))
[13]
  Herbicidal effect on C: oval-leafed pondweed (grade 0-5): 3 (Herbicidal rate of 40% or more and less than 70%)
[14]
  Herbicidal effect on B: Japanese bulrush (grade 0-5): 1 (Herbicidal rate of 5% or more and less than 20%)
[15]
  herbicidal effect rating, L: windgrass: 4 (Herbicidal rate of 70% or more and less than 90%)
[16]
  herbicidal effect on J: blackgrass: 5 (Herbicidal rate of 90% or more (almost completely withered))
[17]
  herbicidal effect on D (Chinese sprangletop), rating 0-5: 4 (Herbicidal rate of 70% or more and less than 90%)
[18]
  herbicidal effect rating, K: Italian ryegrass: 0 (Herbicidal rate of 5% or less (almost no effect))
[19]
  herbicidal effect rating, H: barnyard grass: 1 (Herbicidal rate of 5% or more and less than 20%)
[20]
  herbicidal effect on Q: false cleavers: 5 (Herbicidal rate of 90% or more (almost completely withered))
[21]
  herbicidal effect rating, R: persian speedwell: 4 (Herbicidal rate of 70% or more and less than 90%)
[22]
  herbicidal effect rating, P: chickweed: 4 (Herbicidal rate of 70% or more and less than 90%)
[23]
  herbicidal effect on F: southern crabgrass: 4 (Herbicidal rate of 70% or more and less than 90%)
[24]
  herbicidal effect rating, F: southern crabgrass: 4 (Herbicidal rate of 70% or more and less than 90%)
[25]
  herbicidal effect on I: wild oat: 5 (Herbicidal rate of 90% or more (almost completely withered))
[26]
  herbicidal effect on M: velvetleaf: 5 (Herbicidal rate of 90% or more (almost completely withered))
[27]
  herbicidal effect on H: barnyard grass: 5 (Herbicidal rate of 90% or more (almost completely withered))
[28]
  herbicidal effect on G: green foxtail: 5 (Herbicidal rate of 90% or more (almost completely withered))
[29]
  herbicidal effect rating, G: green foxtail: 2 (Herbicidal rate of 20% or more and less than 40%)
[30]
  herbicidal effect rating, I: wild oat: 3 (Herbicidal rate of 40% or more and less than 70%)
[31]
  herbicidal effect on P: chickweed: 5 (Herbicidal rate of 90% or more (almost completely withered))
